For three compounds, remaining binding results are on record in patent publication US12479847B2 (DANA-FARBER CANCER INSTITUTE, INC., priority 2019, dated 2025).

Molecules are shown by their SMILES.

What all share (assay): KINOMEscan (ScanMAX) kinase profiling
Holding throughout (type): binding

Assay [1] deals with T1, panel of 468 kinases (Homo sapiens, UniProt P33981).
T1 construct: purchased KINOMEscan (ScanMAX) service
T1 sequence (P33981 1-857): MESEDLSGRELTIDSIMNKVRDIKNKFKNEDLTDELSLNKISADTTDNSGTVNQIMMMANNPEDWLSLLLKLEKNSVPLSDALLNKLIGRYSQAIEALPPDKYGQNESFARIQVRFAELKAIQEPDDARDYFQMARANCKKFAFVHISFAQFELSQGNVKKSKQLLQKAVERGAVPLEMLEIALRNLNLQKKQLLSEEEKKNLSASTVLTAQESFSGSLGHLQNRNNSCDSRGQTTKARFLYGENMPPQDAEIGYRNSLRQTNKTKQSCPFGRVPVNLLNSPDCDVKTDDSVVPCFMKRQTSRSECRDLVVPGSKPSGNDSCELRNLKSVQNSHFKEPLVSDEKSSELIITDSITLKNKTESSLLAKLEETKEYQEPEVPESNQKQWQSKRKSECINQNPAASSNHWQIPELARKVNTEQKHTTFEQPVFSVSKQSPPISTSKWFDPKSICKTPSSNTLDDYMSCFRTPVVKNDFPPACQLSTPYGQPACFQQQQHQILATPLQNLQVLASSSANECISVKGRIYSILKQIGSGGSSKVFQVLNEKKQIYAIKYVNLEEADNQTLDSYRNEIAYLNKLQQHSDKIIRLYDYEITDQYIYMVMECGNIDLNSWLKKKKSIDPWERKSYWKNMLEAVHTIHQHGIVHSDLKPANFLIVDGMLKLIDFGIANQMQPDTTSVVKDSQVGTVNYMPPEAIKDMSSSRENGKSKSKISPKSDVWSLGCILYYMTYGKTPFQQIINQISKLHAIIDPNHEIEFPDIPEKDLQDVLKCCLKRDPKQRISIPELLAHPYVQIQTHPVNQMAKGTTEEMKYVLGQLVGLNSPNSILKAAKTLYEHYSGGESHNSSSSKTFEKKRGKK
The note with it: TTK; 1 μM; read-out: % control.

Assay [2] addresses T2, panel of 468 kinases (Homo sapiens, UniProt Q8IU85).
T2 construct: purchased KINOMEscan (ScanMAX) service
The note with it: CAMK1D; 1 μM; read-out: % control.

Assay [3] addresses T3, panel of 468 kinases (Homo sapiens, UniProt P15056, V600E).
T3 construct: purchased KINOMEscan (ScanMAX) service
The following applies: BRAF(V600E); 1 μM; read-out: % control.

The target in assay [4] is T4, panel of 468 kinases (Homo sapiens, UniProt O96013).
T4 construct: purchased KINOMEscan (ScanMAX) service
The following applies: PAK4; 1 μM; read-out: % control.

Assay [5] deals with T5, panel of 468 kinases (Homo sapiens, UniProt O00141).
T5 construct: purchased KINOMEscan (ScanMAX) service
T5 sequence (O00141 1-431): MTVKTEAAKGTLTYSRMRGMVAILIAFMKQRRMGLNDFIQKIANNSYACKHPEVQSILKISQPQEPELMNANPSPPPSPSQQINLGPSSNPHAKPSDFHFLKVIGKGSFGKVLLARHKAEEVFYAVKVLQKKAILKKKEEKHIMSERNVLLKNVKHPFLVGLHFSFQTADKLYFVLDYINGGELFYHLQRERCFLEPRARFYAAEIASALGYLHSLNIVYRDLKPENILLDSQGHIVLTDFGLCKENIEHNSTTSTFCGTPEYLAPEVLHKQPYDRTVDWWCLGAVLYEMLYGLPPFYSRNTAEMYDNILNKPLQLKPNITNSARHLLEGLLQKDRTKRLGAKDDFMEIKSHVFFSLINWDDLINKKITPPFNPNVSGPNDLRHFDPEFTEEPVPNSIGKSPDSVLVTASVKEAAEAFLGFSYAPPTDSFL
The following applies: SGK; 1 μM; read-out: % control.

The target of assay [6] is T6, panel of 468 kinases (Homo sapiens, UniProt Q14012).
T6 construct: purchased KINOMEscan (ScanMAX) service
T6 sequence (Q14012 whole entry): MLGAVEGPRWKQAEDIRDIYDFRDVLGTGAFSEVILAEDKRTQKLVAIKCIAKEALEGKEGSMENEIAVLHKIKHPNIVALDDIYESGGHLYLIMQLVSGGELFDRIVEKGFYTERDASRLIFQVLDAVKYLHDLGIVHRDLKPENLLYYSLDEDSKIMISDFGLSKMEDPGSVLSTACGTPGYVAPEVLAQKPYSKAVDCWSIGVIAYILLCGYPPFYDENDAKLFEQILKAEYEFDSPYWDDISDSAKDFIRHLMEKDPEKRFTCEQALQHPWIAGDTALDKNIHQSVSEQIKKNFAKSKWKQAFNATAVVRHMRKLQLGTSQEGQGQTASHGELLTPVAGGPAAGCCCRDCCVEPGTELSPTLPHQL
The following applies: CAMK1; 1 μM; read-out: % control.

The target of assay [7] is T7, panel of 468 kinases (Homo sapiens, UniProt Q9Y2H1).
T7 construct: purchased KINOMEscan (ScanMAX) service
T7 sequence (Q9Y2H1 whole entry): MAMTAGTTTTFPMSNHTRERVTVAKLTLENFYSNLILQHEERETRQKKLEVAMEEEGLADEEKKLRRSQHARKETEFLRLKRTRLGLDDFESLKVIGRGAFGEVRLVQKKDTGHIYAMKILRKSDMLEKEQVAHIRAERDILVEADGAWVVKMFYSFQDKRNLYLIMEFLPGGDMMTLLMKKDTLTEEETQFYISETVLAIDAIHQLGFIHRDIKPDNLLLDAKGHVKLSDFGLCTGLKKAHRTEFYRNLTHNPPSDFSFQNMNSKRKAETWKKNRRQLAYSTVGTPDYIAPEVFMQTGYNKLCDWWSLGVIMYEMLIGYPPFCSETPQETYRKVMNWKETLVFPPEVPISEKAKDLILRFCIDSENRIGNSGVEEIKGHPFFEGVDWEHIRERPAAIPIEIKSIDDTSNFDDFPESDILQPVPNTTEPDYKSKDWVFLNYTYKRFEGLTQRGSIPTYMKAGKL
The note with it: NDR2; 1 μM; read-out: % control.

Assay [8] concerns the target T8, panel of 468 kinases (Homo sapiens, UniProt P07332).
T8 construct: purchased KINOMEscan (ScanMAX) service
The following applies: FES; 1 μM; read-out: % control.

Assay [9] addresses T9, panel of 468 kinases (Homo sapiens, UniProt Q06187).
T9 construct: purchased KINOMEscan (ScanMAX) service
The note with it: BTK; 1 μM; read-out: % control.

The target of assay [10] is T10, panel of 468 kinases (Homo sapiens, UniProt Q13882).
T10 construct: purchased KINOMEscan (ScanMAX) service
The note with it: BRK; 1 μM; read-out: % control.

The target of assay [11] is T11, panel of 468 kinases (Homo sapiens, UniProt Q6DT37).
T11 construct: purchased KINOMEscan (ScanMAX) service
T11 sequence (Q6DT37 whole entry): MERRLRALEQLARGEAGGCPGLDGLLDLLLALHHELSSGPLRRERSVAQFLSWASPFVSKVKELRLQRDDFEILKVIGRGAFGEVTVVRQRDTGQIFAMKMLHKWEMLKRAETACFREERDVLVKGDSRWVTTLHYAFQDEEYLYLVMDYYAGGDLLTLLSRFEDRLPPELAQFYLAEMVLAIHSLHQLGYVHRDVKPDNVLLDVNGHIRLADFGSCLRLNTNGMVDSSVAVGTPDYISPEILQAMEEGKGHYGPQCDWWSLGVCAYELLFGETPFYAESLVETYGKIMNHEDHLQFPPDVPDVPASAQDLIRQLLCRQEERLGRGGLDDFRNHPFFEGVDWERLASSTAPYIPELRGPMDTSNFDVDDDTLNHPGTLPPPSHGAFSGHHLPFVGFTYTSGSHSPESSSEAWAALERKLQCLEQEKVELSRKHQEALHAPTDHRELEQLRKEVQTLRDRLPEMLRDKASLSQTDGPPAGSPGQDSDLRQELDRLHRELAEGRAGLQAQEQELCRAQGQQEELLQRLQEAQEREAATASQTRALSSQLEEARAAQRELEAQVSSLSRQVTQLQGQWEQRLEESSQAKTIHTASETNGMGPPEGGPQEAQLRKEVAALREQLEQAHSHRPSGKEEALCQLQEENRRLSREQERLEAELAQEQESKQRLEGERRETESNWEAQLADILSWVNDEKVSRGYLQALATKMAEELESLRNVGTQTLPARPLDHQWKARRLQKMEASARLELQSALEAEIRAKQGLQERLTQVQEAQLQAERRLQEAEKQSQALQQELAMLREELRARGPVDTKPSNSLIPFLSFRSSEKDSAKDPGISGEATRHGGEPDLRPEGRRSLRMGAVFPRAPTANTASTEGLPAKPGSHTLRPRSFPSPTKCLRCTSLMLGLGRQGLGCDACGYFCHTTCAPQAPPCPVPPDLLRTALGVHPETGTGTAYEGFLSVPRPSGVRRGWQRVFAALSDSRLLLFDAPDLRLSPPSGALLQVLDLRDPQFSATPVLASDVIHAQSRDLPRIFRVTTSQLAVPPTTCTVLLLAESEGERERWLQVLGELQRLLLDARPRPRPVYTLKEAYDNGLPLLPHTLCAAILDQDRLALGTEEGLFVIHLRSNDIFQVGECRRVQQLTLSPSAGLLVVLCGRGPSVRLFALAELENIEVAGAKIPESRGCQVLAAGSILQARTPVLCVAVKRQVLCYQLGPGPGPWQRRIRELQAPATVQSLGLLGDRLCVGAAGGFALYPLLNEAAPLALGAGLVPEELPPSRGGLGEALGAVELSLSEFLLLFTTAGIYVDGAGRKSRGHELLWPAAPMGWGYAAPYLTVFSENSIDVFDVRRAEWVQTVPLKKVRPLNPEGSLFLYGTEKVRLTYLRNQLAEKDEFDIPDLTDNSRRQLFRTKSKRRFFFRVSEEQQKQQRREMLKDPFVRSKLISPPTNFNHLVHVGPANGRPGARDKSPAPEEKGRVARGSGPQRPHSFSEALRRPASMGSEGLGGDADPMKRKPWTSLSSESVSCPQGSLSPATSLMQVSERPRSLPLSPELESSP
The note with it: DMPK2; 1 μM; read-out: % control.

Assay [12] addresses T12, panel of 468 kinases (Homo sapiens, UniProt P24723).
T12 construct: purchased KINOMEscan (ScanMAX) service
The following applies: PRKCH; 1 μM; read-out: % control.

T2 sequence (Q8IU85 whole entry): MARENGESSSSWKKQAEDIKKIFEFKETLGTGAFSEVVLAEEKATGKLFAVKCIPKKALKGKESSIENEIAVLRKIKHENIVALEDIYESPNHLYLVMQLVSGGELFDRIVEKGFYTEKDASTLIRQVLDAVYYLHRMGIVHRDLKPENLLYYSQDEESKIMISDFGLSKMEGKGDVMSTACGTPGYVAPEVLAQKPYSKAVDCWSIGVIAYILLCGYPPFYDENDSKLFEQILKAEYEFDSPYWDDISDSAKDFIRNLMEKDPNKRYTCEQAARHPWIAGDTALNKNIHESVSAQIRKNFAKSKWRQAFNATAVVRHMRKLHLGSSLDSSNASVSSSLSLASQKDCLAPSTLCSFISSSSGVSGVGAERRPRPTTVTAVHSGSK
T9 sequence (Q06187 whole entry): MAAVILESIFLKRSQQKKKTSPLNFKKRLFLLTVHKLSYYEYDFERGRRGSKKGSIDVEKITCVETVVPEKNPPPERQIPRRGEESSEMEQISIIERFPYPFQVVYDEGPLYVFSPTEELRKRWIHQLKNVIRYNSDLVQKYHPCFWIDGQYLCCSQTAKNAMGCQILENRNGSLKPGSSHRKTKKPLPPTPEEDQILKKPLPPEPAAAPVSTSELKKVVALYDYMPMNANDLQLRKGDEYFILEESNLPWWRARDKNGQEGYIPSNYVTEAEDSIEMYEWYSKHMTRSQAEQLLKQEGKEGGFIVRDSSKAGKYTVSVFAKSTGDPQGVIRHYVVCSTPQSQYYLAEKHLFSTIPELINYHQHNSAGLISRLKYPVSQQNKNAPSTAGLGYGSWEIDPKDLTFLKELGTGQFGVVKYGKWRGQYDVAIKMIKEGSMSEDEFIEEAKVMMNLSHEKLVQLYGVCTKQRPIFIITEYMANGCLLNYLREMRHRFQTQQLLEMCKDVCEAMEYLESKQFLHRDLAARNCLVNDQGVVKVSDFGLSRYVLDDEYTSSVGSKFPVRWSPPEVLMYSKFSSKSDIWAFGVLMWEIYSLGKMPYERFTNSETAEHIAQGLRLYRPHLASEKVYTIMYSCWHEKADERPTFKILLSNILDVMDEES
T8 sequence (P07332 whole entry): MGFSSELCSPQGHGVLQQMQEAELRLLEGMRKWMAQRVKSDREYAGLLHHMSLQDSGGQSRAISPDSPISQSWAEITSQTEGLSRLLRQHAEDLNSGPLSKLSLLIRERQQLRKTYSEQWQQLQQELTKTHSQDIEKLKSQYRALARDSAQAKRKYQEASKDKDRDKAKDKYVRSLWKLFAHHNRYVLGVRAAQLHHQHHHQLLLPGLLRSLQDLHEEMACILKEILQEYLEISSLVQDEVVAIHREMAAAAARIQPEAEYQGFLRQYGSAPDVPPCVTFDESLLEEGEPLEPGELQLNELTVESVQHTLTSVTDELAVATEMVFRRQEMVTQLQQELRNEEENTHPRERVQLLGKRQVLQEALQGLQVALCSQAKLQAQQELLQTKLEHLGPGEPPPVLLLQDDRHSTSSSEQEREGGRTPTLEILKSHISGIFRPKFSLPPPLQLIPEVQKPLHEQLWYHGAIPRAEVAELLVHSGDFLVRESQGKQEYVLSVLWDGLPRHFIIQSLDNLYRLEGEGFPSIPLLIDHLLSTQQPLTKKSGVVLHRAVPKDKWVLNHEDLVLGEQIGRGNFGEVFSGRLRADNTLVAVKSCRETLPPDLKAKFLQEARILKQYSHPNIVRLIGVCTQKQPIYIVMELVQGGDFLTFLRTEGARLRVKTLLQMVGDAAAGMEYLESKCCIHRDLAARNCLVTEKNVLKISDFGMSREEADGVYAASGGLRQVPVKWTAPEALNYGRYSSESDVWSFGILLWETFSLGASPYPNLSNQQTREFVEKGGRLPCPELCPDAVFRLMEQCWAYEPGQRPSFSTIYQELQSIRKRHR
T12 sequence (P24723 whole entry): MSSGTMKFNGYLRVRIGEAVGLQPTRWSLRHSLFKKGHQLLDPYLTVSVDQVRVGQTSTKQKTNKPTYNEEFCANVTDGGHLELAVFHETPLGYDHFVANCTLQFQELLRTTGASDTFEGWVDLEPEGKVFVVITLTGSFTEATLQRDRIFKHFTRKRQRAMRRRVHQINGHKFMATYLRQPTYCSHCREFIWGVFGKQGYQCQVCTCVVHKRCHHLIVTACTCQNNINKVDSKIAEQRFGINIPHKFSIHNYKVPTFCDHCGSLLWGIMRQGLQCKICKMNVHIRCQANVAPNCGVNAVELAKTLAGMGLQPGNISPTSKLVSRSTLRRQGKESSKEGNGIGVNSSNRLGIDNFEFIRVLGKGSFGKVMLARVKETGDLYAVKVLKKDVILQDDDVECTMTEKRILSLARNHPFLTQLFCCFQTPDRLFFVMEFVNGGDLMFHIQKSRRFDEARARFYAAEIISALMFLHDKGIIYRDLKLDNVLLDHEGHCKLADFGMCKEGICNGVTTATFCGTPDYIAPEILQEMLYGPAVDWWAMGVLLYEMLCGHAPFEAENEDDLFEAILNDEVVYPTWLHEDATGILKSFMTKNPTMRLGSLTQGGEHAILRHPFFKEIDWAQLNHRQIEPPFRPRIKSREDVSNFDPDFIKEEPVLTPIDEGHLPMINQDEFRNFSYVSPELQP

`CNc1nc(Nc2ccc(S(=O)(=O)N3CCC(N4CCOCC4)CC3)cc2OC)nc2[nH]cc(Cl)c12` [Compound 12, 5-chloro-N2-(2-methoxy-4-((4-morpholinopiperidin-1-yl)sulfonyl)phenyl)-N4-methyl-7H-pyrrolo[2,3-d]pyrimidine-2,4-diamine]: the remaining binding at 1 µM on panel of 468 kinases [1] is 1%; on panel of 468 kinases [2], 96%; on panel of 468 kinases [3], 91%; on panel of 468 kinases [4] it was 100%; at panel of 468 kinases [5], 89%; on panel of 468 kinases [6], 100%. Moreover, the remaining binding at 1 µM came to 100% on panel of 468 kinases [7]; 100% at panel of 468 kinases [8]; 79% on panel of 468 kinases [9]; 100% at panel of 468 kinases [10]; 100% at panel of 468 kinases [11]; 97% at panel of 468 kinases [12].

`CNc1nc(Nc2ccc(C(=O)N3CCC(N4CCOCC4)CC3)c3c2OCO3)nc2[nH]cc(Cl)c12` [Compound 75, (7-((5-chloro-4-(methylamino)-7H-pyrrolo[2,3-d]pyrimidin-2-yl)amino)benzo[d][1,3]dioxol-4-yl)(4-morpholinopiperidin-1-yl)methanone]: the remaining binding at 1 µM worked out at 0.6% on panel of 468 kinases [1]; 47% on panel of 468 kinases [2]; 100% at panel of 468 kinases [3]; 100% at panel of 468 kinases [4]; 7.2% on panel of 468 kinases [5]; 75% on panel of 468 kinases [6]. Besides, the remaining binding at 1 µM at panel of 468 kinases [7] turned out to be 100%; at panel of 468 kinases [8], 81%; at panel of 468 kinases [9], 98%; on panel of 468 kinases [10], 99%; on panel of 468 kinases [11], 100%; on panel of 468 kinases [12], 91%.

Take `CNc1nc(Nc2ccc(P3(=O)CCN(C4CCOCC4)CC3)cc2OC)nc2[nH]cc(Cl)c12` [Compound 77, 4-(4-((5-chloro-4-(methylamino)-7H-pyrrolo[2,3-d]pyrimidin-2-yl)amino)-3-methoxyphenyl)-1-(tetrahydro-2H-pyran-4-yl)-1,4-azaphosphinane 4-oxide]: the remaining binding at 1 µM came to 0.5% on panel of 468 kinases [1]; 39% at panel of 468 kinases [2]; 88% at panel of 468 kinases [3]; 100% on panel of 468 kinases [4]; 68% on panel of 468 kinases [5]; 67% on panel of 468 kinases [6]. For the same compound, the remaining binding at 1 µM at panel of 468 kinases [7] worked out at 100%; at panel of 468 kinases [8], 80%; at panel of 468 kinases [9], 100%; at panel of 468 kinases [10], 94%; on panel of 468 kinases [11], 94%; on panel of 468 kinases [12], 100%.
